# Where a SMILES comes first, the peptide text is derived from it. [ ]: non-standard residue; d: D form. Aib = CC(C)(N)C(=O)O
# Target: human GLP-1R (Homo sapiens, UniProt P43220)
# Assay: Peptide-receptor mediated cAMP accumulation (LANCE Ultra cAMP) in CHO-K1 cells transfected with human GLP-1R
# Format: cell-based
# Settings: hGLP1 pEC50 (cAMP mean (n = 3): 11 point curve starting at 1 nM, Table 3)
# human GLP-1R, sequence (P43220 24-463): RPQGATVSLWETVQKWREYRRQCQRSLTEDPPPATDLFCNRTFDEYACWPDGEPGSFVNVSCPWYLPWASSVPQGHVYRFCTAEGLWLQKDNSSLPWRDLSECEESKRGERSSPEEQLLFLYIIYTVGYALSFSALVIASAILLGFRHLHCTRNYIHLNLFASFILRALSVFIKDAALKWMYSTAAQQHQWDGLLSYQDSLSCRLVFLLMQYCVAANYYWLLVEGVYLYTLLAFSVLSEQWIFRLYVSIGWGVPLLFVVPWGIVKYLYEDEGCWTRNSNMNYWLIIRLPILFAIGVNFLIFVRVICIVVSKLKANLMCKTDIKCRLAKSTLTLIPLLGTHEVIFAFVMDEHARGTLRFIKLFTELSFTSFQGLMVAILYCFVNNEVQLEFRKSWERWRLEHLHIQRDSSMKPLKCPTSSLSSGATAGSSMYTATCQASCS
row,Compound,EC50 [nM]
1,CC(C)C[C@H](NC(=O)[C@H](Cc1ccc(O)cc1)NC(=O)[C@H](CCCCN)NC(=O)[C@H](CO)NC(=O)[C@H](Cc1ccc(O)cc1)NC(=O)[C@H](CC(=O)O)NC(=O)[C@H](CO)NC(=O)[C@@H](NC(=O)[C@H](Cc1ccccc1)NC(=O)[C@@H](NC(=O)CNC(=O)[C@H](Cc1c[nH]cn1)NC(=O)[C@H](CO)NC(=O)[C@@H](N)Cc1ccc(O)cc1)[C@@H](C)O)[C@@H](C)O)C(=O)N[C@@H](CC(=O)O)C(=O)NC(C)(C)C(=O)N[C@@H](CCCCN)C(=O)N[C@@H](CCCNC(=N)N)C(=O)N[C@@H](C)C(=O)N[C@@H](CCC(N)=O)C(=O)N[C@@H](CCC(=O)O)C(=O)N[C@@H](Cc1ccccc1)C(=O)N[C@H](C(=O)NC(C)(C)C(=O)N[C@@H](Cc1c[nH]c2ccccc12)C(=O)N[C@@H](CC(C)C)C(=O)N[C@@H](CCC(=O)O)C(=O)N[C@@H](CCC(=O)O)C(=O)N[C@@H](CCC(=O)O)C(=O)N1CCC[C@H]1C(=O)N[C@@H](CO)C(=O)N[C@@H](CO)C(=O)NCC(=O)N[C@@H](C)C(=O)N1CCC[C@H]1C(=O)N1CCC[C@H]1C(=O)N1CCC[C@H]1C(=O)N[C@@H](CO)C(=O)O)C(C)C [Compound A9] (H-YSHGTFTSDYSKYLD[Aib]KRAQEFV[Aib]WLEEEPSSGAPPPS-OH; N-terminus assumed),> 1
2,CC(C)C[C@H](NC(=O)[C@H](Cc1ccc(O)cc1)NC(=O)[C@H](CCCCN)NC(=O)[C@H](CO)NC(=O)[C@H](Cc1ccc(O)cc1)NC(=O)[C@H](CC(=O)O)NC(=O)[C@H](CO)NC(=O)[C@@H](NC(=O)[C@H](Cc1ccccc1)NC(=O)[C@@H](NC(=O)CNC(=O)[C@H](Cc1c[nH]cn1)NC(=O)[C@H](CO)NC(=O)[C@@H](N)Cc1ccc(O)cc1)[C@@H](C)O)[C@@H](C)O)C(=O)N[C@@H](CC(=O)O)C(=O)NC(C)(C)C(=O)N[C@@H](CCCCN)C(=O)N[C@@H](CCCNC(=N)N)C(=O)N[C@@H](C)C(=O)N[C@@H](CCC(N)=O)C(=O)N[C@@H](CCC(=O)O)C(=O)N[C@@H](Cc1ccccc1)C(=O)N[C@H](C(=O)NC(C)(C)C(=O)N[C@@H](Cc1c[nH]c2ccccc12)C(=O)N[C@@H](CC(C)C)C(=O)N[C@@H](CCC(=O)O)C(=O)N[C@@H](CC(=O)O)C(=O)N[C@@H](CCC(=O)O)C(=O)NCC(=O)N[C@@H](C)C(=O)N1CCC[C@H]1C(=O)N1CCC[C@H]1C(=O)N1CCC[C@H]1C(=O)N[C@@H](CO)C(=O)O)C(C)C [Compound A12] (H-YSHGTFTSDYSKYLD[Aib]KRAQEFV[Aib]WLEDEGAPPPS-OH; N-terminus assumed),> 1
3,CC(C)C[C@H](NC(=O)[C@H](Cc1ccc(O)cc1)NC(=O)[C@H](CCCCN)NC(=O)[C@H](CO)NC(=O)[C@H](Cc1ccc(O)cc1)NC(=O)[C@H](CC(=O)O)NC(=O)[C@H](CO)NC(=O)[C@@H](NC(=O)[C@H](Cc1ccccc1)NC(=O)[C@@H](NC(=O)CNC(=O)[C@H](Cc1c[nH]cn1)NC(=O)[C@H](CO)NC(=O)[C@@H](N)Cc1ccc(O)cc1)[C@@H](C)O)[C@@H](C)O)C(=O)N[C@@H](CC(=O)O)C(=O)NC(C)(C)C(=O)N[C@@H](CCCCN)C(=O)N[C@@H](CCCNC(=N)N)C(=O)N[C@@H](C)C(=O)N[C@@H](CCC(N)=O)C(=O)N[C@@H](CCC(=O)O)C(=O)N[C@@H](Cc1ccccc1)C(=O)N[C@H](C(=O)NC(C)(C)C(=O)N[C@@H](Cc1c[nH]c2ccccc12)C(=O)N[C@@H](CC(C)C)C(=O)N[C@@H](CCC(=O)O)C(=O)N[C@@H](CC(=O)O)C(=O)N[C@@H](CCC(=O)O)C(=O)N[C@@H](CO)C(=O)NCC(=O)N[C@@H](C)C(=O)N1CCC[C@H]1C(=O)N1CCC[C@H]1C(=O)N1CCC[C@H]1C(=O)N[C@@H](CO)C(=O)O)C(C)C [Compound A13] (H-YSHGTFTSDYSKYLD[Aib]KRAQEFV[Aib]WLEDESGAPPPS-OH; N-terminus assumed),> 1
4,CC(C)C[C@H](NC(=O)[C@H](Cc1c[nH]c2ccccc12)NC(=O)[C@H](CCCCN)NC(=O)[C@H](CO)NC(=O)[C@H](Cc1ccc(O)cc1)NC(=O)[C@H](CC(=O)O)NC(=O)[C@H](CO)NC(=O)[C@@H](NC(=O)[C@H](Cc1ccccc1)NC(=O)[C@@H](NC(=O)CNC(=O)[C@H](Cc1c[nH]cn1)NC(=O)[C@H](CO)NC(=O)[C@@H](N)Cc1ccc(O)cc1)[C@@H](C)O)[C@@H](C)O)C(=O)N[C@@H](CC(=O)O)C(=O)NC(C)(C)C(=O)N[C@@H](C)C(=O)N[C@@H](CCCNC(=N)N)C(=O)N[C@@H](C)C(=O)N[C@@H](CCC(N)=O)C(=O)N[C@@H](CCC(=O)O)C(=O)N[C@@H](Cc1ccccc1)C(=O)N[C@H](C(=O)NC(C)(C)C(=O)N[C@@H](Cc1c[nH]c2ccccc12)C(=O)N[C@@H](CC(C)C)C(=O)N[C@@H](CCC(=O)O)C(=O)N[C@@H](CC(=O)O)C(=O)N[C@@H](CCC(=O)O)C(=O)N1CCC[C@H]1C(=O)N[C@@H](CO)C(=O)N[C@@H](CO)C(=O)NCC(=O)N[C@@H](C)C(=O)N1CCC[C@H]1C(=O)N1CCC[C@H]1C(=O)N1CCC[C@H]1C(=O)N[C@@H](CO)C(=O)O)C(C)C [Compound A18] (H-YSHGTFTSDYSKWLD[Aib]ARAQEFV[Aib]WLEDEPSSGAPPPS-OH; N-terminus assumed),> 1
5,CC(C)C[C@H](NC(=O)[C@H](Cc1ccc(O)cc1)NC(=O)[C@H](CCCCN)NC(=O)[C@H](CO)NC(=O)[C@H](Cc1ccc(O)cc1)NC(=O)[C@H](CC(=O)O)NC(=O)[C@H](CO)NC(=O)[C@@H](NC(=O)[C@H](Cc1ccccc1)NC(=O)[C@@H](NC(=O)CNC(=O)[C@H](Cc1c[nH]cn1)NC(=O)[C@H](CO)NC(=O)[C@@H](N)Cc1ccc(O)cc1)[C@@H](C)O)[C@@H](C)O)C(=O)N[C@@H](CC(=O)O)C(=O)NC(C)(C)C(=O)N[C@@H](CCCCN)C(=O)N[C@@H](CCCNC(=N)N)C(=O)N[C@@H](C)C(=O)N[C@@H](CCC(N)=O)C(=O)N[C@@H](CCC(=O)O)C(=O)N[C@@H](Cc1ccccc1)C(=O)N[C@H](C(=O)NC(C)(C)C(=O)N[C@@H](Cc1c[nH]c2ccccc12)C(=O)N[C@@H](CC(C)C)C(=O)N[C@@H](CCC(=O)O)C(=O)N[C@@H](CC(=O)O)C(=O)N[C@@H](CCC(=O)O)C(=O)N1CCC[C@H]1C(=O)N[C@@H](CO)C(=O)N[C@@H](CO)C(=O)N[C@@H](CCCCN)C(=O)NCC(=O)N[C@@H](C)C(=O)N1CCC[C@H]1C(=O)N1CCC[C@H]1C(=O)N1CCC[C@H]1C(=O)N[C@@H](CO)C(=O)O)C(C)C [Compound A24] (H-YSHGTFTSDYSKYLD[Aib]KRAQEFV[Aib]WLEDEPSSKGAPPPS-OH),> 1
6,CC(C)C[C@H](NC(=O)[C@H](Cc1ccc(O)cc1)NC(=O)[C@H](CCCCN)NC(=O)[C@H](CO)NC(=O)[C@H](Cc1ccc(O)cc1)NC(=O)[C@H](CC(=O)O)NC(=O)[C@H](CO)NC(=O)[C@@H](NC(=O)[C@H](Cc1ccccc1)NC(=O)[C@@H](NC(=O)CNC(=O)[C@H](Cc1c[nH]cn1)NC(=O)[C@H](CO)NC(=O)[C@@H](N)Cc1ccc(O)cc1)[C@@H](C)O)[C@@H](C)O)C(=O)N[C@@H](CC(=O)O)C(=O)NC(C)(C)C(=O)N[C@@H](CCCCN)C(=O)N[C@@H](CCCNC(=N)N)C(=O)N[C@@H](C)C(=O)N[C@@H](CCC(N)=O)C(=O)N[C@@H](CCC(=O)O)C(=O)N[C@@H](Cc1ccccc1)C(=O)N[C@H](C(=O)NC(C)(C)C(=O)N[C@@H](Cc1c[nH]c2ccccc12)C(=O)N[C@@H](CC(C)C)C(=O)N[C@@H](CCC(=O)O)C(=O)N[C@@H](CC(=O)O)C(=O)N[C@@H](CCC(=O)O)C(=O)NCC(=O)NCC(=O)N1CCC[C@H]1C(=O)N[C@@H](CO)C(=O)N[C@@H](CO)C(=O)NCC(=O)N[C@@H](C)C(=O)N1CCC[C@H]1C(=O)N1CCC[C@H]1C(=O)N1CCC[C@H]1C(=O)N[C@@H](CO)C(=O)O)C(C)C [Compound A27] (H-YSHGTFTSDYSKYLD[Aib]KRAQEFV[Aib]WLEDEGGPSSGAPPPS-OH; N-terminus assumed),> 1
7,CC(C)C[C@H](NC(=O)[C@H](Cc1c[nH]c2ccccc12)NC(=O)[C@H](CCCCN)NC(=O)[C@H](CO)NC(=O)[C@H](Cc1ccc(O)cc1)NC(=O)[C@H](CC(=O)O)NC(=O)[C@H](CO)NC(=O)[C@@H](NC(=O)[C@H](Cc1ccccc1)NC(=O)[C@@H](NC(=O)CNC(=O)[C@H](Cc1c[nH]cn1)NC(=O)[C@@H](NC(=O)[C@@H](N)Cc1ccc(O)cc1)[C@@H](C)O)[C@@H](C)O)[C@@H](C)O)C(=O)N[C@@H](CC(=O)O)C(=O)NC(C)(C)C(=O)N[C@@H](CCCCN)C(=O)N[C@@H](CCCNC(=N)N)C(=O)N[C@@H](C)C(=O)N[C@@H](CCC(N)=O)C(=O)N[C@@H](CCC(=O)O)C(=O)N[C@@H](Cc1ccccc1)C(=O)N[C@H](C(=O)NC(C)(C)C(=O)N[C@@H](Cc1c[nH]c2ccccc12)C(=O)N[C@@H](CC(C)C)C(=O)N[C@@H](CCC(=O)O)C(=O)N[C@@H](CC(=O)O)C(=O)N[C@@H](CCC(=O)O)C(=O)N1CCC[C@H]1C(=O)N[C@@H](CO)C(=O)N[C@@H](CO)C(=O)NCC(=O)N[C@@H](C)C(=O)N1CCC[C@H]1C(=O)N1CCC[C@H]1C(=O)N1CCC[C@H]1C(=O)N[C@@H](CO)C(=O)O)C(C)C [Compound A32] (H-YTHGTFTSDYSKWLD[Aib]KRAQEFV[Aib]WLEDEPSSGAPPPS-OH; N-terminus assumed),> 1
8,CC(C)C[C@H](NC(=O)[C@H](Cc1ccc(O)cc1)NC(=O)[C@H](CCCCN)NC(=O)[C@H](CO)NC(=O)[C@H](Cc1ccc(O)cc1)NC(=O)[C@H](CC(=O)O)NC(=O)[C@H](CO)NC(=O)[C@@H](NC(=O)[C@H](Cc1ccccc1)NC(=O)[C@@H](NC(=O)CNC(=O)[C@H](Cc1c[nH]cn1)NC(=O)[C@H](CO)NC(=O)[C@@H](N)Cc1ccc(O)cc1)[C@@H](C)O)[C@@H](C)O)C(=O)N[C@@H](CC(=O)O)C(=O)N[C@@H](CO)C(=O)N[C@@H](C)C(=O)N[C@@H](CCCNC(=N)N)C(=O)N[C@@H](C)C(=O)N[C@@H](CCC(N)=O)C(=O)N[C@@H](CCC(=O)O)C(=O)N[C@@H](Cc1ccccc1)C(=O)N[C@H](C(=O)N[C@@H](CCCCN)C(=O)N[C@@H](Cc1c[nH]c2ccccc12)C(=O)N[C@@H](CC(C)C)C(=O)N[C@@H](CCC(=O)O)C(=O)N[C@@H](CC(=O)O)C(=O)N[C@@H](CCC(=O)O)C(=O)N1CCC[C@H]1C(=O)N[C@@H](CO)C(=O)N[C@@H](CO)C(=O)NCC(=O)N[C@@H](C)C(=O)N1CCC[C@H]1C(=O)N1CCC[C@H]1C(=O)N1CCC[C@H]1C(=O)N[C@@H](CO)C(=O)O)C(C)C [Compound A37] (H-YSHGTFTSDYSKYLDSARAQEFVKWLEDEPSSGAPPPS-OH; N-terminus assumed),> 1

# — US20240239861A1, “GLUCAGON-RECEPTOR SELECTIVE POLYPEPTIDES AND METHODS OF USE THEREOF” (i2O Therapeutics, Inc., priority 2016, published 2024)
